From ChEMBL document CHEMBL3885881, “DrugMatrix”

Organism: Rattus norvegicus
Assay type: toxicity, organism-based, Sprague-Dawley
Settings: in vivo, po, route oral GAVAGE, vehicle 100 % SALINE; for ABSOLUTE EOSINOPHIL / ABSOLUTE LYMPHOCYTE / ABSOLUTE MONOCYTE / ABSOLUTE SEGMENTED NEUTROPHIL / BASOPHIL / EOSINOPHIL / ERYTHROCYTE COUNT / HEMATOCRIT / HEMOGLOBIN / LEUKOCYTE COUNT / LYMPHOCYTE / MEAN CORPUSCULAR HEMOGLOBIN / MEAN CORPUSCULAR HEMOGLOBIN CONCENTRATION / MEAN CORPUSCULAR VOLUME / MONOCYTE / NEUTROPHIL / NUCLEATED RED BLOOD CELLS / PLATELET COUNT: tissue Blood; for ALANINE AMINOTRANSFERASE / ALBUMIN / ALKALINE PHOSPHATASE / ASPARTATE AMINOTRANSFERASE / BLOOD UREA NITROGEN / CARBON DIOXIDE / CHLORIDE / CHOLESTEROL / CREATINE PHOSPHOKINASE / CREATININE / GLUCOSE / LACTATE DEHYDROGENASE / LIPASE / PHOSPHORUS / POTASSIUM / SODIUM / TOTAL BILIRUBIN / TOTAL PROTEIN / URIC ACID: tissue Plasma
[1] = 0 mg/kg, 6 h, dose level Control, time 0.25 day
[2] = 0 mg/kg, 24 h, dose level Control, time 1 day
[3] = 3000 mg/kg, 6 h, dose level Low, time 0.25 day

Description: DrugMatrix - Regimen: Single

How did the “ABSOLUTE EOSINOPHIL” value [1] turn out when CCO [ALCOHOL] was run?
The value was 24 CELLS/uL.

And the “ABSOLUTE LYMPHOCYTE” value [1]?
The value was 11958.17 CELLS/uL.

And the “ABSOLUTE MONOCYTE” value [1]?
Its value is 398.83 CELLS/uL.

And the “ABSOLUTE SEGMENTED NEUTROPHIL” value [1]?
The value was 1252.33 CELLS/uL.

And the BASOPHIL [1]?
The BASOPHIL was 0%.

What about the EOSINOPHIL [1] of the same compound?
The EOSINOPHIL was 0.17%.

What about the “ERYTHROCYTE COUNT” value [1] of the same compound?
The value was 5.37 x10E6/uL.

What about the HEMATOCRIT [1] of the same compound?
Its HEMATOCRIT is 35.6%.

What about the HEMOGLOBIN [1] of the same compound?
The HEMOGLOBIN was 13.05 G/DL.

And the “LEUKOCYTE COUNT” value [1]?
The value was 13.63 x10E3/uL.

What about the LYMPHOCYTE [1] of the same compound?
Its LYMPHOCYTE is 87.67%.

What about the “MEAN CORPUSCULAR HEMOGLOBIN” value [1] of the same compound?
The value was 24.28 pg.

And the “MEAN CORPUSCULAR HEMOGLOBIN CONCENTRATION” value [1]?
Its value is 36.67 G/DL.

What about the “MEAN CORPUSCULAR VOLUME” value [1] of the same compound?
Its value is 66.28 fL.

What about the MONOCYTE [1] of the same compound?
Its MONOCYTE is 2.83%.

What about the NEUTROPHIL [1] of the same compound?
The NEUTROPHIL was 9.33%.

And the “NUCLEATED RED BLOOD CELLS” value [1]?
Its value is 0 /100WBC.

What about the “PLATELET COUNT” value [1] of the same compound?
The value was 947.83 x10E3/uL.

What about the “ALANINE AMINOTRANSFERASE” value [1] of the same compound?
Its value is 51 u/L.

And the ALBUMIN [1]?
The ALBUMIN was 4.02 G/DL.

What about the “ALKALINE PHOSPHATASE” value [1] of the same compound?
The value was 312.33 u/L.

And the “ASPARTATE AMINOTRANSFERASE” value [1]?
The value was 98.17 u/L.

What about the “BLOOD UREA NITROGEN” value [1] of the same compound?
The value was 9.5 mg/dL.

What about the “CARBON DIOXIDE” value [1] of the same compound?
The value was 18.83 mmol/L.

What about the CHLORIDE [1] of the same compound?
The CHLORIDE was 103.5 MEQ/L.

What about the CHOLESTEROL [1] of the same compound?
Its CHOLESTEROL is 69.5 mg/dL.

What about the “CREATINE PHOSPHOKINASE” value [1] of the same compound?
Its value is 580.17 u/L.

What about the CREATININE [1] of the same compound?
Its CREATININE is 0.53 mg/dL.

And the GLUCOSE [1]?
The GLUCOSE was 175.67 mg/dL.

What about the “LACTATE DEHYDROGENASE” value [1] of the same compound?
The value was 295.5 u/L.

What about the LIPASE [1] of the same compound?
Its LIPASE is 8.17 u/L.

What about the PHOSPHORUS [1] of the same compound?
The PHOSPHORUS was 14.12 mg/dL.

What about the POTASSIUM [1] of the same compound?
Its POTASSIUM is 5.77 MEQ/L.

And the SODIUM [1]?
The SODIUM was 144.13 MEQ/L.

What about the “TOTAL BILIRUBIN” value [1] of the same compound?
Its value is 0.12 mg/dL.

What about the “TOTAL PROTEIN” value [1] of the same compound?
Its value is 4.87 G/DL.

What about the “URIC ACID” value [1] of the same compound?
Its value is 2.25 mg/dL.

What about the “ABSOLUTE EOSINOPHIL” value [2] of the same compound?
Its value is 0 CELLS/uL.

What about the “ABSOLUTE LYMPHOCYTE” value [2] of the same compound?
The value was 12232.83 CELLS/uL.

And the “ABSOLUTE MONOCYTE” value [2]?
Its value is 20.33 CELLS/uL.

And the “ABSOLUTE SEGMENTED NEUTROPHIL” value [2]?
Its value is 780.17 CELLS/uL.

What about the BASOPHIL [2] of the same compound?
Its BASOPHIL is 0%.

What about the EOSINOPHIL [2] of the same compound?
Its EOSINOPHIL is 0%.

And the “ERYTHROCYTE COUNT” value [2]?
Its value is 5.18 x10E6/uL.

What about the HEMATOCRIT [2] of the same compound?
The HEMATOCRIT was 33.48%.

What about the HEMOGLOBIN [2] of the same compound?
Its HEMOGLOBIN is 13.22 G/DL.

And the “LEUKOCYTE COUNT” value [2]?
The value was 13.03 x10E3/uL.

What about the LYMPHOCYTE [2] of the same compound?
Its LYMPHOCYTE is 93.33%.

And the “MEAN CORPUSCULAR HEMOGLOBIN” value [2]?
The value was 25.57 pg.

What about the “MEAN CORPUSCULAR HEMOGLOBIN CONCENTRATION” value [2] of the same compound?
The value was 39.52 G/DL.

What about the “MEAN CORPUSCULAR VOLUME” value [2] of the same compound?
Its value is 64.65 fL.

What about the MONOCYTE [2] of the same compound?
The MONOCYTE was 0.17%.

What about the NEUTROPHIL [2] of the same compound?
Its NEUTROPHIL is 6.5%.

And the “NUCLEATED RED BLOOD CELLS” value [2]?
The value was 0 /100WBC.

And the “PLATELET COUNT” value [2]?
The value was 931.5 x10E3/uL.

What about the “ALANINE AMINOTRANSFERASE” value [2] of the same compound?
Its value is 60.83 u/L.

What about the ALBUMIN [2] of the same compound?
Its ALBUMIN is 4.18 G/DL.

What about the “ALKALINE PHOSPHATASE” value [2] of the same compound?
Its value is 283.33 u/L.

And the “ASPARTATE AMINOTRANSFERASE” value [2]?
The value was 80.5 u/L.

And the “BLOOD UREA NITROGEN” value [2]?
Its value is 11.83 mg/dL.

What about the “CARBON DIOXIDE” value [2] of the same compound?
Its value is 35.33 mmol/L.

And the CHLORIDE [2]?
Its CHLORIDE is 98.5 MEQ/L.

And the CHOLESTEROL [2]?
The CHOLESTEROL was 80 mg/dL.

What about the “CREATINE PHOSPHOKINASE” value [2] of the same compound?
The value was 181.83 u/L.

And the CREATININE [2]?
Its CREATININE is 0.2 mg/dL.

What about the GLUCOSE [2] of the same compound?
The GLUCOSE was 142.67 mg/dL.

And the “LACTATE DEHYDROGENASE” value [2]?
Its value is 65.5 u/L.

And the LIPASE [2]?
Its LIPASE is 9.83 u/L.

And the PHOSPHORUS [2]?
Its PHOSPHORUS is 9.82 mg/dL.

What about the POTASSIUM [2] of the same compound?
The POTASSIUM was 5.69 MEQ/L.

What about the SODIUM [2] of the same compound?
Its SODIUM is 143.35 MEQ/L.

And the “TOTAL BILIRUBIN” value [2]?
The value was 0.15 mg/dL.

And the “TOTAL PROTEIN” value [2]?
Its value is 6.2 G/DL.

And the “URIC ACID” value [2]?
Its value is 0.42 mg/dL.

What about the “ABSOLUTE EOSINOPHIL” value [3] of the same compound?
The value was 17.33 CELLS/uL.

And the “ABSOLUTE LYMPHOCYTE” value [3]?
Its value is 12297.17 CELLS/uL.

What about the “ABSOLUTE MONOCYTE” value [3] of the same compound?
Its value is 395.33 CELLS/uL.

And the “ABSOLUTE SEGMENTED NEUTROPHIL” value [3]?
Its value is 1356.83 CELLS/uL.

What about the BASOPHIL [3] of the same compound?
Its BASOPHIL is 0%.

What about the EOSINOPHIL [3] of the same compound?
The EOSINOPHIL was 0.17%.

What about the “ERYTHROCYTE COUNT” value [3] of the same compound?
The value was 5.49 x10E6/uL.

And the HEMATOCRIT [3]?
The HEMATOCRIT was 36.33%.

What about the HEMOGLOBIN [3] of the same compound?
The HEMOGLOBIN was 13.27 G/DL.

What about the “LEUKOCYTE COUNT” value [3] of the same compound?
Its value is 14.07 x10E3/uL.

What about the LYMPHOCYTE [3] of the same compound?
Its LYMPHOCYTE is 87%.

And the “MEAN CORPUSCULAR HEMOGLOBIN” value [3]?
The value was 24.23 pg.

What about the “MEAN CORPUSCULAR HEMOGLOBIN CONCENTRATION” value [3] of the same compound?
Its value is 36.55 G/DL.

What about the “MEAN CORPUSCULAR VOLUME” value [3] of the same compound?
Its value is 66.38 fL.

And the MONOCYTE [3]?
Its MONOCYTE is 2.67%.

And the NEUTROPHIL [3]?
Its NEUTROPHIL is 10.17%.

And the “NUCLEATED RED BLOOD CELLS” value [3]?
The value was 0 /100WBC.

What about the “PLATELET COUNT” value [3] of the same compound?
Its value is 1109.83 x10E3/uL.

What about the “ALANINE AMINOTRANSFERASE” value [3] of the same compound?
Its value is 45.5 u/L.

And the ALBUMIN [3]?
Its ALBUMIN is 4.27 G/DL.

What about the “ALKALINE PHOSPHATASE” value [3] of the same compound?
The value was 279.17 u/L.

What about the “ASPARTATE AMINOTRANSFERASE” value [3] of the same compound?
Its value is 96.17 u/L.

What about the “BLOOD UREA NITROGEN” value [3] of the same compound?
The value was 11 mg/dL.

And the “CARBON DIOXIDE” value [3]?
Its value is 19.5 mmol/L.

What about the CHLORIDE [3] of the same compound?
The CHLORIDE was 105.33 MEQ/L.

And the CHOLESTEROL [3]?
The CHOLESTEROL was 63.33 mg/dL.

What about the “CREATINE PHOSPHOKINASE” value [3] of the same compound?
The value was 339.67 u/L.

What about the CREATININE [3] of the same compound?
The CREATININE was 0.17 mg/dL.

What about the GLUCOSE [3] of the same compound?
The GLUCOSE was 173 mg/dL.

And the “LACTATE DEHYDROGENASE” value [3]?
The value was 354.67 u/L.

And the LIPASE [3]?
The LIPASE was 10 u/L.

What about the PHOSPHORUS [3] of the same compound?
The PHOSPHORUS was 15.83 mg/dL.

And the POTASSIUM [3]?
The POTASSIUM was 6.29 MEQ/L.

What about the SODIUM [3] of the same compound?
Its SODIUM is 146.3 MEQ/L.

And the “TOTAL BILIRUBIN” value [3]?
The value was 0.0667 mg/dL.

And the “TOTAL PROTEIN” value [3]?
The value was 5.62 G/DL.

What about the “URIC ACID” value [3] of the same compound?
Its value is 2.12 mg/dL.
